Assay results from patent US9290788B2, “Device for determining or studying the state of stimulation of the natural defences of plants or portions of plants” (Institut National De La Recherche Agronomique, priority 2010, dated 2016).
“And” between values parts separate entries of the source, which are not always exact repeats. Equal values may be shown once.

Legend:
[1] = system: fire blight (Erwinia amylovora); details: Test 1, controlled conditions
[2] = system: 28 target genes (defense genes) in apple tree leaves; experiment: Test 1: relative expression of the 28 defense genes (qPCR, ΔΔCt) in apple tree seedling leaves subjected to NDS treatments and abiotic stresses; format: in vivo, apple tree seedlings (Golden Delicious)
[3] = +H2O2, J2, relative to water control
[4] = +H2O2, J3, relative to water control
[5] = vs water control, +H2O2 (sprayed 24 hours after treatment), J2
[6] = vs water control, +H2O2 (sprayed 24 hours after treatment), J3
[7] = −H2O2, J2, relative to water control
[8] = −H2O2, J3, relative to water control

## CC(N)CC(=O)O (racemic) [Baba, DL-β-amino-n-butyric acid]
[1]
  protection against fire blight: no protective effect against fire blight
[2]; [3]
  Relative expression APOX (log base 2): 1.49 and 1.76
  Relative expression JAR (log base 2): −0.44 and −0.16
  Relative expression POX (log base 2): 2.20 and 2.28
[2]; [4]
  Relative expression CAD (log base 2): −0.15 and −0.29
  Relative expression CalS (log base 2): 2.10 and 1.88
[2]; H2O2 sprayed 24 hours after treatment
  direct stimulator versus potentiator: gene expression after additional H2O2 treatment: triggers the expression of some genes (POX, Pect, for example)
[2]; Test 1
  effect on the modulation of target gene expression (in words): little effect on the modulations of genes
[2]; [5]
  Relative expression of ANS: 1.41 log2 and 2.12 log2
  Relative expression of PAL: 0.29 log2 and 0.55 log2
  Relative expression of PR-15: 0.84 log2 and 0.71 log2
[2]; [6]
  Relative expression of PR-1: 2.71 log2 and 1.77 log2
  Relative expression of PR-5: 1.91 log2 and 1.34 log2
  Relative expression of PR-15: 1.46 log2 and 2.06 log2
[2]; vs water control, −H2O2, J2
  Relative expression of ANS: 1.28 log2 and 1.53 log2
  Relative expression of PAL: 0.42 log2 and 0.27 log2
[2]; vs water control, −H2O2, J3
  Relative expression of PAL: 0.20 log2 and 0.29 log2
[2]; [7]
  Relative expression CHS (log base 2): 0.27 and 0.29
  Relative expression DFR (log base 2): 0.64 and 0.93
  Relative expression GST (log base 2): −0.05 and −0.34
[2]; [8]
  Relative expression CHS (log base 2): 0.19 and 0.31
  Relative expression FPPS (log base 2): 0.46 and 0.56
